Laboratory results taken from patent publication US20060035291A1, “Method of detecting cellular immunity and application thereof to drugs” (priority 2001, published 2006).
Read-outs that look alike come from different tables or passages of the source. Where no end group is shown, it is not given here.

Columns and labels:
[1] = system: healthy donors; conditions: in vivo
[2] = system: HLA-A24 restricted antigen peptide-specific T cells (CTL precursors) in PBMCs; format: cell-based, human; conditions: for CTL precursor induction assay, response level per well: quadricate assay; for IFN-γ production: background deducted
[3] = system: cancer patients; test: Skin test for immediate and delayed type hypersensitivity in cancer patients
Procedure: For the skin test, 10 μg of 5 kinds of peptides was subcutaneously administered to each patient. Saline was used as the negative control. 20 minutes and 24 hours after injection, immediate and delayed type hypersensitivity (DHT) reactions were looked for. The skin test reaction was determined as positive if erythema and sclerosis were more than 10 mm in diameter. If the immediate hypersensitivity reaction was negative, a peptide was administered. Each peptide solution (3 mg/ml) was mixed with the same amount of IFA (Montanide ISA-51) and emulsified in a 5-mI plastic syringe, and 3 ml of the emulsion was subcutaneously administered to the lateral femoral region every two weeks. Serum PSA level was measured 4 weeks after vaccination. The time passed was defined as the time from the registration day to the date when the progress of the target disease was recorded. For patients who chose to discontinue the study without any progress of the target disease (e.g., increase in PSA) it was determined that the disease had progressed at the time the study was stopped.
When an immediate hypersensitivity reaction positive in the skin test of one of these peptides, that peptide was vaccinated if the fifth peptide of criteria A, B, or Z was negative in the skin test. […] In Table 14, o signifies vaccine peptides given to each patient.
Vaccine was administered to HLA-A24 positive patients with progressive cancer as following. CypB91 was given to lung cancer patients, ART475 to ovarian cancer patients, and SART3109 to colorectal cancer patients. None of the patients received any steroids or other immunosuppressants from 4 weeks before the beginning of this study to the end of the study. When the skin test was negative, 1 ml of peptide solution (1 mg/ml) was emulsified with the same amount of Freund's incomplete adjuvant (Montanide ISA-51) and injected subcutaneously. In this embodiment, all patients were vaccinated at least three times every two weeks, and up to seventeen times, depending on the patient's wishes.

[4] = system: healthy donors; test: Allergic skin reaction (type I allergy) skin test in healthy donors
[5] = HLA-A24 positive cervical cancer patient, after more than 5 doses of cancer vaccine
[6] = HLA-A24 positive cervical cancer patient, before vaccination, response to HIV-C1R-A24 cells subtracted
[7] = HRPC Pt. 1, pre-vaccinated PBMCs
[8] = HRPC Pt. 3, pre-vaccinated PBMCs
[9] = colorectal cancer patient 4, after the 3rd vaccination
[10] = HLA-A24 positive cervical cancer patient PBMCs
[11] = HRPC Pt. 9, pre-vaccinated PBMCs

GFHRVIKDF [CypB 84-1G]
suppressed cases FR ≦ 0.25 [1]: 1/7

TFDYLRSVL [lck486]
IFN-γ production 1st well [2, 5]: 2 pg/well
IFN-γ production 2nd well [2, 5]: 24 pg/well
IFN-γ production 3rd well [2, 5]: <0 pg/well
IFN-γ production 1st well [2, 6]: <0 pg/well
IFN-γ production 2nd well [2, 6]: <0 pg/well
IFN-γ production 3rd well [2, 6]: 31 pg/well
CTL precursor induction assay, response level per well [2, 7]: E (E: 0.1<p≦0.2 and 100≦net)
CTL precursor induction assay, response level per well ([2]; HRPC Pt. 2, pre-vaccinated PBMCs): ^b(⊚B)
CTL precursor induction assay, response level per well [2, 8]: (D)
CTL precursor induction assay, response level per well ([2]; HRPC Pt. 8, pre-vaccinated PBMCs): ⊚A
peptide-specific DTH reaction [3, 9]: exhibited DTH reaction

KFHRVIKGF
number of donors in whom the skin reaction was significantly decreased (<=0.25 of the rate in redness range) [1]: 0

KFHRVIGDF [CypB 84-7G]
suppressed cases FR ≦ 0.25 [1]: 1/7

KFGRVIKDF
number of donors in whom the skin reaction was significantly decreased (<=0.25 of the rate in redness range) [1]: 2

AYDFLYNYL [SART2161]
rate of skin reaction occurrence (donors) [1]: no such response

AFLGHAAL
skin reaction [1]: did not induce skin reaction in any of 4 donors

KFHRGIKDF
number of donors in whom the skin reaction was significantly decreased (<=0.25 of the rate in redness range) [1]: 0

HYTNASDGL [lck208]
frequency of detection in the primary screening (patients) [2]: 3/10
IFN-γ production After 3rd dose of vaccine [2, 10]: 676 pg/mL
IFN-γ production After 6th dose of vaccine [2, 10]: 745 pg/mL
IFN-γ production Pre-Vaccination [2, 10]: 602 pg/mL
IFN-γ production 1st well [2, 5]: 41 pg/well
IFN-γ production 2nd well [2, 5]: 1473 pg/well
IFN-γ production 1st well [2, 6]: <0 pg/well
IFN-γ production 2nd well [2, 6]: <0 pg/well
IFN-γ production 3rd well [2, 6]: 76 pg/well
change in reactivity of PBMCs to the vaccinated peptide after vaccination ([2]; HLA-A24 positive cervical cancer patient, before vs after 3rd and 6th dose): increase in reactivity
CTL precursor induction assay, response level per well [2, 7]: E^′
CTL precursor induction assay, response level per well [2, 8]: ⊚AD
CTL precursor induction assay, response level per well ([2]; HRPC Pt. 6, pre-vaccinated PBMCs): ⊚ArAAC
CTL precursor induction assay, response level per well [2, 11]: ⊚AD
positive well frequency after vaccination ([2]; colorectal cancer patient 1): increase in positive well frequency
positive well frequency after vaccination ([2]; colorectal cancer patient 2): increase in positive well frequency
peptide-specific DTH reaction ([3]; colorectal cancer patient 1): observed after the 6th vaccination
peptide-specific DTH reaction [3, 9]: exhibited DTH reaction

KFHGVIKDF [CypB 84-4G]
suppressed cases FR ≦ 0.25 [1]: 1/7

AFGRHAAL
number of donors with a significant decrease in skin reaction [1]: one

AFGRHAAL [ART4 13-3G]
suppressed cases FR ≦ 0.25 [1]: 1/4

KFHRVGKDF
number of donors in whom the skin reaction was significantly decreased (<=0.25 of the rate in redness range) [1]: 3

AFLRGAAL [ART4 13-5G]
suppressed cases FR ≦ 0.25 [1]: 1/4

HFHRVIPDF
Allergic skin reaction, area of flare ([4]; healthy donor HD1): 375 mm × mm
Allergic skin reaction, area of flare ([4]; healthy donor HD2): 1225 mm × mm
Allergic skin reaction, area of flare ([4]; healthy donor HD3): 750 mm × mm
Allergic skin reaction, area of flare ([4]; healthy donor HD6): 900 mm × mm
Allergic skin reaction, area of flare ([4]; healthy donor HD10): 156 mm × mm

NFHRVIKDF
Allergic skin reaction, area of flare ([4]; healthy donor HD1): 360 mm × mm
Allergic skin reaction, area of flare ([4]; healthy donor HD2): 1400 mm × mm
Allergic skin reaction, area of flare ([4]; healthy donor HD3): 600 mm × mm
Allergic skin reaction, area of flare ([4]; healthy donor HD6): 1350 mm × mm
Allergic skin reaction, area of flare ([4]; healthy donor HD10): 300 mm × mm

KFHRGIKDF [CypB 84-5G]
suppressed cases FR ≦ 0.25 [1]: 0/7

AFLRHAAG [ART4 13-8G]
suppressed cases FR ≦ 0.25 [1]: 1/4

DYSARWNEI [SART293]
frequency of detection in the primary screening (patients) [2]: 4/10
IFN-γ production 1st well [2, 5]: 12 pg/well
IFN-γ production 2nd well [2, 5]: 58 pg/well
IFN-γ production 3rd well [2, 5]: 21 pg/well
IFN-γ production 1st well [2, 6]: <0 pg/well
IFN-γ production 2nd well [2, 6]: 33 pg/well
IFN-γ production 3rd well [2, 6]: 99 pg/well
CTL precursor induction assay, response level per well ([2]; HRPC Pt. 4, pre-vaccinated PBMCs): ⊚ArB
CTL precursor induction assay, response level per well ([2]; HRPC Pt. 5, pre-vaccinated PBMCs): ⊚AAE
CTL precursor induction assay, response level per well [2, 11]: ⊚Ar
CTL precursor induction assay, response level per well ([2]; HRPC Pt. 10, pre-vaccinated PBMCs): ⊚A

KFHRVIKDG [CypB 84-9G]
suppressed cases FR ≦ 0.25 [1]: 2/7

AGLRHAAL [ART4 13-2G]
skin test, area of flare [1]: 0 mm × mm
suppressed cases FR ≦ 0.25 [1]: 4/4

RFYIQMCYEL [Flu peptide, reference compound]
IFN-γ production ([2]; protocol A: interval 1 day, 10 stimulations, 11 days, HLA-A24 positive healthy donors): 0 pg/mL
IFN-γ production ([2]; protocol B: interval 2 days, 6 stimulations, 11 days, HLA-A24 positive healthy donors): 227 pg/mL
IFN-γ production ([2]; protocol C: interval 3 days, 5 stimulations, 13 days, HLA-A24 positive healthy donors): 242 pg/mL
IFN-γ production ([2]; protocol D: interval 4 days, 4 stimulations, 13 days, HLA-A24 positive healthy donors): 29 pg/mL
IFN-γ production ([2]; protocol E: interval 5 days, 3 stimulations, 11 days, HLA-A24 positive healthy donors): 16 pg/mL
IFN-γ production ([2]; protocol F: interval 6 days, 3 stimulations, 13 days, HLA-A24 positive healthy donors): 0 pg/mL
IFN-γ production ([2]; protocol G: interval 7 days, 3 stimulations, 21 days, 24-well plate, radiated auto-PBMCs): 150 pg/mL

EYCLKFTKL [ART1170]
immediate hypersensitivity reaction in skin test ([3]; 10 colorectal cancer patients, before vaccination): positive in all patients

KFHRVIKGF [CypB 84-8G]
suppressed cases FR ≦ 0.25 [1]: 0/7
